{"source": "patent US11419827B2", "about": "“Protecting tissue and mitigating injury from radiation-induced ionizing events” (Humanetics Corporation, priority 2017, dated 2022)", "key": {"p53 and γH2AX": {"tested_on": "p53 and γH2AX", "test": "Western blot for DNA damage markers p53 and γH2AX in heart and lung tissue of mice exposed to 6 Gy high LET proton radiation", "assay_type": "in vivo", "conditions": "200 mg/kg s.c. 24 hours before 6 Gy high LET proton radiation, tissues harvested 3 days later, vs tubulin control", "protocol": "FIG. 2 is a western blot with heart and lung tissue extracted from animals that were treated with or without genistein [200 mg/kg subcutaneously (s.c.)] and then exposed to 6 Gy high LET proton radiation 24 hours after treatment. The indicated tissues were harvested 3 days later. The levels of p53 (a DNA damage response protein) and γH2AX (a direct measurement of DNA damage) were measured and compared to a tubulin control.\n(§1) Mice were prophylactically administered genistein (200 mg/kg) via s.c. injection 24 hours prior to radiation exposure. Appropriate sham radiation and vehicle controls were applied. Radiation exposures of 6 Gy with high-LET protons [50 MeV fully modulated spread-out Bragg peak (SOBP)] were utilized. The following parameters were examined:\nDNA damage in tissues—Lungs and heart were surgically removed and subjected to thin-slice sectioning, followed by western blot analysis for the DNA damage markers p53 and γH2AX (an effective measure of proton radiation-induced biological damage; see, Liu et al., Radiation Oncology 91(5):1081-1089, 2015), as well as tubulin control."}, "[1]": {"tested_on": "CXCL1 cytokine, G-CSF, TNFα", "test": "Multi-cytokine LUMINEX panel on peripheral blood of mice exposed to 6 Gy high LET proton radiation", "assay_type": "in vivo", "conditions": "200 mg/kg s.c. 24 hours before 6 Gy high LET proton radiation; blood taken 3, 6 and 12 days after exposure", "protocol": "FIGS. 4A, 4B, and 4C are graphs plotting the levels of CXCL1 cytokine (FIG. 4A), granulocyte colony stimulating factor (G-CSF; FIG. 4B), and tumor necrosis factor alpha (TNFα; FIG. 4C) in blood from mice injected with 200 mg/kg genistein (s.c.) 24 hours prior to exposure to 6 Gy high LET proton radiation. In these experiments, blood was drawn from mice on the indicated days following radiation exposure, and the levels of cytokines were assayed.\nas §1\nCytokine response—Peripheral blood was taken from the treated and irradiated mice 3, 6, and 12 days after radiation exposure, and assessed using a multi-cytokine LUMINEX® panel to evaluate the global inflammatory cytokine response."}, "Human cardiomyocytes": {"tested_on": "Human cardiomyocytes", "test": "Live cell counts of human cardiomyocytes after mixed field (32% neutron, 68% gamma) radiation", "assay_type": "cell-based", "conditions": "treated 24 hours before exposure to various doses of MF radiation; counts 3 days after exposure", "protocol": "FIG. 5 is a graph plotting the number of live human cardiomyocytes after treatment of the cells with genistein 24 hours before exposure to various doses of mixed field (32% neutron, 68% gamma) radiation (henceforth referred to as “MF” radiation). Live cell counts were performed 3 days after radiation exposure.\nHuman cardiomyocytes were treated with genistein 24 hours before exposure to various doses of mixed field (“MF,” 32% neutron, 68% gamma) radiation. Live cell counts were performed 3 days after radiation exposure."}, "[2]": {"conditions": "in several pharmaceutically acceptable solvents; cited from earlier work"}}, "note": "“Also recorded” adds a separate entry of the source.", "data": [{"smiles": "O=c1c(-c2ccc(O)cc2)coc2cc(O)cc(O)c12", "note": "[genistein, 5,7-dihydroxy-3-(4-hydroxyphenyl)-chromen-4-one]", "values": [{"measurement": "p53 levels in response to radiation exposure", "setting": "p53 and γH2AX", "result": "prevented a marked increase in p53 levels"}, {"measurement": "p53 levels in response to radiation exposure", "setting": "p53 and γH2AX; listed as Genistein", "result": "ameliorated the effects of proton radiation"}, {"measurement": "γH2AX levels", "setting": "p53 and γH2AX; listed as Genistein", "result": "lower levels of γH2AX; also recorded: ameliorated the effects of proton radiation"}, {"measurement": "expression of CXCL1 cytokine in blood", "setting": "[1]", "result": "mitigated the effects of proton radiation"}, {"measurement": "expression of G-CSF in blood", "setting": "[1]", "result": "mitigated the effects of proton radiation"}, {"measurement": "expression of TNFα in blood", "setting": "[1]", "result": "mitigated the effects of proton radiation"}, {"measurement": "survival (live cell counts) after MF radiation", "setting": "Human cardiomyocytes", "result": "increased survival"}, {"measurement": "solubility", "setting": "[2]", "result": "low to virtually no solubility"}]}]}
